Target: reactive oxygen species generated in kidney membrane (NADPH oxidase)
Test: Inhibition of reactive oxygen species generation in kidney membrane (lucigenin-based assay)
Assay type: biochemical, rat (Rattus norvegicus)
Details: 37° C. for 10 minutes, luminescence, compounds at 40, 10, 2.5, 0.625, 0 μM
Method: A kidney was isolated from a rat (Rattus norvegicus) and washed with phosphate buffered saline (PBS). The tissue was soaked in 20 mL of PBS buffer containing a protease inhibitor (Aprotinin 1 μg/mL-USB 11388, Leupeptin 1 μg/mL-USB-18413), finely disrupted using a mixer, and then transferred to a 50 mL conical tube (SPL 50050), followed by centrifugation at 10000 g for 10 minutes (MF-600 plus, Hanil) to sediment the undisrupted tissue. The supernatant was separated and collected in a fresh tube. The tube was placed in ice and subjected to sonication about 4 times each cycle for 30 seconds until the supernatant became clear (Branson Digital Sonifier, Model CE Converter 102C). The supernatant was transferred to a high-speed centrifugation tube (Beckman 331372) and then centrifuged at 100000 g for 1 hour (Optima™ L-90 K Preparative Ultracentrifuge, SW41Ti rotor, Beckman). After the supernatant was discarded, the remaining pellet was washed once with cold PBS and dissolved in 500 μL of cold PBS containing a protease inhibitor to obtain a murine kidney membrane.
Reactive oxygen species generated in the thus-obtained kidney membrane was analyzed by a lucigenin-based assay.
Specifically, each of the compounds synthesized in Examples of the present invention (40 μM, 10 μM, 2.5 μM, 0.625 μM, and 0 μM) was placed in a luminescence assay microplate, and the isolated kidney membrane and lucigenin were sequentially added thereto, followed by incubation at 37° C. for 10 minutes. Then, the intensity of luminescence was measured in a luminometer (MicroLumatPlus LB96V Microplate Luminometer, Berthold) to assay the generation of reactive oxygen species in the murine kidney membrane, followed by calculating an EC50 value of the inventive compounds.

Point of comparison: Oc1cc(COc2ccc3ccccc3c2)nn1-c1ccccn1 [Compound 6b, 3-((naphthalen-3-yloxy)methyl)-1-(pyridin-2-yl)-1H-pyrazol-5-ol], EC50 400 nM. Against it:
- Oc1cc(C=Cc2ccccc2)nn1-c1ccccn1 [Compound 9a, 1-(pyridin-2-yl)-3-styryl-1H-pyrazol-5-ol] — within 1.5-fold, 500 nM
- Oc1cc(C=Cc2ccc(Cl)c(Cl)c2)nn1-c1ccccn1 [Compound 9d, 3-(3,4-dichlorostyryl)-1-(pyridin-2-yl)-1H-pyrazol-5-ol] — 4.2-fold higher, 1700 nM
- Oc1cc(CCc2ccccc2)nn1-c1ccccn1 [Compound 3d, 3-phenethyl-1-(pyridin-2-yl)-1H-pyrazol-5-ol] — 25-fold higher, 10000 nM
- COc1ccc(C=Cc2cc(O)n(-c3ccccn3)n2)cc1OC [Compound 9c, 3-(3,4-dimethoxystyryl)-1-(pyridin-2-yl)-1H-pyrazol-5-ol] — 1.5-fold higher, 600 nM
- Oc1ccc(C=Cc2cc(O)n(-c3ccccn3)n2)cc1 [Compound 9k, 3-(4-hydroxystyryl)-1-(pyridin-2-yl)-1H-pyrazol-5-ol] — 3.8-fold higher, 1500 nM
- Oc1cc(COc2ccccc2)nn1-c1ccccn1 [Compound 6a, 3-(phenoxymethyl)-1-(pyridin-2-yl)-1H-pyrazol-5-ol] — 19-fold higher, 7500 nM
- COc1ccc(C=Cc2cc(O)n(-c3ccccn3)n2)cc1 [Compound 9b, 3-(4-methoxystyryl)-1-(pyridin-2-yl)-1H-pyrazol-5-ol] — within 1.5-fold, 500 nM
- Oc1cc(Cc2ccc(Cl)cc2)nn1-c1ccccn1 [Compound 3e, 3-(p-chlorobenzyl)-1-(pyridin-2-yl)-1H-pyrazol-5-ol] — 3.8-fold higher, 1500 nM
- CC(C)(C)[Si](C)(C)Oc1ccc(/C=C/c2cc(O)n(-c3ccccn3)n2)cc1 [Compound 9g] — 2.2-fold higher, 900 nM
- Oc1cc(COc2ccc(Cl)cc2Cl)nn1-c1ccccn1 [Compound 6d, 3-((2,4-dichlorophenoxy)methyl)-1-(pyridin-2-yl)-1H-pyrazol-5-ol] — 4.5-fold higher, 1800 nM
- Oc1cc(C=Cc2ccc(C(F)(F)F)cc2)nn1-c1ccccn1 [Compound 9f, 3-(4-trifluoromethylstyryl)-1-(pyridin-2-yl)-1H-pyrazol-5-ol] — within 1.5-fold, 500 nM

— patent US8637674B2, “Pyrazole derivatives, preparation method thereof, and composition for prevention and treatment of osteoporosis containing same” (EWHA University-Industry Collaboration Foundation, priority 2009, dated 2014)
